Data: the NIST ThermoML archive (doi:10.1021/acs.jced.7b00002)

Experiment: xn = mol fraction of the nth substance listed
Conditions: 97.6 kPa, Liquid; for viscosity: Capillary tube (Ostwald / Ubbelohde) method; for mass density: Vibrating tube method

CCCCCCCC[n+]1ccn(C)c1.[Cl-] [1-methyl-3-octylimidazolium chloride] + CC(=O)N(C)C
Conditions	mass density [kg/m3]	viscosity [mPa·s]
303.15 K, x1 = 0.139	958.09	3.63
303.15 K, x1 = 0.273	975.02	14.75
303.15 K, x1 = 0.361	981.93	32.45
303.15 K, x1 = 0.468	988.64	92.29
303.15 K, x1 = 0.602	994.87	288.58
303.15 K, x1 = 0.786	1001.37	1049.5
303.15 K, x1 = 0.877	1003.75	1865.4
303.15 K, x1 = 1	1006.2	7339.7
308.15 K, x1 = 0.139	954.07	3.26
308.15 K, x1 = 0.273	971.38	12.52
308.15 K, x1 = 0.361	978.45	26.51
308.15 K, x1 = 0.468	985.3	70.68
308.15 K, x1 = 0.602	991.72	210.24
308.15 K, x1 = 0.786	998.36	714.83
308.15 K, x1 = 0.877	1000.8	1255
308.15 K, x1 = 1	1003.33	4272.9
313.15 K, x1 = 0.139	950.12	2.94
313.15 K, x1 = 0.273	967.74	10.65
313.15 K, x1 = 0.361	974.97	21.93
313.15 K, x1 = 0.468	981.99	55.22
313.15 K, x1 = 0.602	988.57	156.62
313.15 K, x1 = 0.786	995.34	502.24
313.15 K, x1 = 0.877	997.86	853.26
313.15 K, x1 = 1	1000.48	2766.9
318.15 K, x1 = 0.139	946.26	2.65
318.15 K, x1 = 0.273	964.11	9.2
318.15 K, x1 = 0.361	971.5	18.32
318.15 K, x1 = 0.468	978.68	44.2
318.15 K, x1 = 0.602	985.42	119.22
318.15 K, x1 = 0.786	992.37	358.94
318.15 K, x1 = 0.877	994.92	594.67
318.15 K, x1 = 1	997.64	1788.6
323.15 K, x1 = 0.139	942.47	2.42
323.15 K, x1 = 0.273	960.49	8.02
323.15 K, x1 = 0.361	968.04	15.51
323.15 K, x1 = 0.468	975.38	35.89
323.15 K, x1 = 0.602	982.29	92.49
323.15 K, x1 = 0.786	989.43	263.25
323.15 K, x1 = 0.877	992	425.36
323.15 K, x1 = 1	994.82	1198.7
328.15 K, x1 = 0.139	938.72	2.21
328.15 K, x1 = 0.273	956.87	7.04
328.15 K, x1 = 0.361	964.59	13.24
328.15 K, x1 = 0.468	972.09	29.51
328.15 K, x1 = 0.602	979.16	72.76
328.15 K, x1 = 0.786	986.49	198.27
328.15 K, x1 = 0.877	989.12	310.37
328.15 K, x1 = 1	992	828.3
333.15 K, x1 = 0.139	934.99	2.04
333.15 K, x1 = 0.273	953.26	6.22
333.15 K, x1 = 0.361	961.14	11.44
333.15 K, x1 = 0.468	968.81	24.7
333.15 K, x1 = 0.602	976.05	58.34
333.15 K, x1 = 0.786	983.55	150.45
333.15 K, x1 = 0.877	986.24	231.3
333.15 K, x1 = 1	989.17	588.69
338.15 K, x1 = 0.139	931.23	1.88
338.15 K, x1 = 0.273	949.65	5.53
338.15 K, x1 = 0.361	957.71	9.98
338.15 K, x1 = 0.468	965.54	20.81
338.15 K, x1 = 0.602	972.96	47.46
338.15 K, x1 = 0.786	980.62	116.53
338.15 K, x1 = 0.877	983.37	176.46
338.15 K, x1 = 1	986.38	426.28
343.15 K, x1 = 0.139	927.34	1.74
343.15 K, x1 = 0.273	946.05	4.96
343.15 K, x1 = 0.361	954.28	8.73
343.15 K, x1 = 0.468	962.28	17.72
343.15 K, x1 = 0.602	969.87	38.89
343.15 K, x1 = 0.786	977.69	91.77
343.15 K, x1 = 0.877	980.49	136.74
343.15 K, x1 = 1	983.63	316.66
348.15 K, x1 = 0.139	923.35	1.62
348.15 K, x1 = 0.273	942.44	4.47
348.15 K, x1 = 0.361	950.85	7.7
348.15 K, x1 = 0.468	959.03	15.26
348.15 K, x1 = 0.602	966.79	32.38
348.15 K, x1 = 0.786	974.78	73.67
348.15 K, x1 = 0.877	977.62	107.08
348.15 K, x1 = 1	980.88	237.14
353.15 K, x1 = 0.139	919.35	1.51
353.15 K, x1 = 0.273	938.85	4.05
353.15 K, x1 = 0.361	947.43	6.85
353.15 K, x1 = 0.468	955.78	13.2
353.15 K, x1 = 0.602	963.72	27.28
353.15 K, x1 = 0.786	971.87	59.69
353.15 K, x1 = 0.877	974.77	85.14
353.15 K, x1 = 1	978.13	181.41
